The compounds below were run against T1, HCV genotype 1b (BK) NS3 modified with a R155K mutation (Hepatitis C virus genotype 1b, UniProt P26663, R1181K) (assay: HCV NS3 protease time-resolved fluorescence (TRF) assay, NS3 protease 1b R155K Ki activity). Details: HCV genotype 1b (BK) NS3 with R155K mutation; TRF peptide substrate 100 nM; Ki derived from IC50.
T1 construct: HCV genotype 1b (BK) NS3 modified with a R155K mutation
Format: biochemical
Experimental: The HCV NS3 protease inhibitory activity of the present compounds may be tested using assays known in the art. One such assay is HCV NS3 protease time-resolved fluorescence (TRF) assay as described below and in International Patent Application Publication WO 2006/102087. Other examples of such assays are described in e.g., International Patent Application Publication WO 2005/046712.
A NS3 protease assay can be performed, for example, in a final volume of 100 μl assay buffer containing 50 mM HEPES, pH 7.5, 150 mM NaCl, 15% glycerol, 0.15% TRITON X-100, 10 mM DTT, and 0.1% PEG 8000. NS3 and NS4A protease is pre-incubated with various concentrations of inhibitors in DMSO for 30 minutes. The reaction is initiated by adding the TRF peptide substrate (final concentration 100 nM). NS3 mediated hydrolysis of the substrate is quenched after 1 hour at room temperature with 100 μl of 500 mM MES, pH 5.5. Product fluorescence is detected using either a VICTOR V2 or FUSION fluorophotometer (Perkin Elmer Life and Analytical Sciences) with excitation at 340 nm and emission at 615 nm with a 400 μs delay. Testing concentrations of different enzyme forms are selected to result in a signal to background ratio (S/B) of 10-30. IC50 values are derived using a standard four-parameter fit to the data. Ki values are derived from IC50 values using the following formula, IC50=Ki(1+[S]/KM), Eqn (1), where [S] is the concentration of substrate peptide in the reaction and KM is the Michaelis constant. See P. Gallinari et al., 38 BIOCHEM. 5620-32 (1999); P. Gallinari et al., 72 J. VIROL. 6758-69 (1998); M. Taliani et al., 240 ANAL. BIOCHEM. 60-67 (1996).
The HCV NS3 protease inhibitory activity was measured using the protease time-resolved fluorescence (TRF) assay as described below and in International Patent Application Publication WO 2006/102087. The assay was performed with HCV genotype 1b (BK) NS3 modified with a R155K mutation.
The assay was performed in a final volume of 100 μl in assay buffer containing 50 mM HEPES, pH 7.5, 150 mM NaCl, 15% glycerol, 0.15% TRITON X-100, 10 mM DTT, and 0.1% PEG 8000. NS3 and NS4A protease is pre-incubated with various concentrations of inhibitors in DMSO for 30 minutes. The reaction is initiated by adding the TRF peptide substrate (final concentration 100 nM). NS3 mediated hydrolysis of the substrate is quenched after 1 hour at room temperature with 100 μl of 500 mM MES, pH 5.5. Product fluorescence is detected using either a VICTOR V2 or FUSION fluorophotometer (Perkin Elmer Life and Analytical Sciences) with excitation at 340 nm and emission at 615 nm with a 400 μs delay. Testing concentrations of the enzyme containing the R155K mutation were selected to result in a signal to background ratio (S/B) of 10-30. IC50 values are derived using a standard four-parameter fit to the data. Ki values are derived from IC50 values using the following formula, IC50=Ki(1+[S]/KM), Eqn (1), where [S] is the concentration of substrate peptide in the reaction and KM is the Michaelis constant. See P. Gallinari et al., 38 BIOCHEM. 5620-32 (1999); P. Gallinari et al., 72 J. VIROL. 6758-69 (1998); M. Taliani et al., 240 ANAL. BIOCHEM. 60-67 (1996).
`C=C[C@@H]1C[C@]1(NC(=O)[C@@H]1C[C@@H]2CN1C(=O)[C@H](C1CCCC1)NC(=O)O[C@@H]1CCC[C@H]1C/C=C/Cn1c(cc3ccccc3c1=O)O2)C(=O)NS(=O)(=O)C1CC1` showed a Ki of 100 to 500 pM. With `C=C[C@@H]1C[C@]1(NC(=O)[C@@H]1C[C@@H]2CN1C(=O)[C@H](C1CCCC1)NC(=O)O[C@@H]1CCC[C@H]1CC1CC1CCn1c(cc3cc(Cl)ccc3c1=O)O2)C(=O)NS(=O)(=O)C1CC1` (some centres unmarked) the Ki was 100 to 500 pM. `C=C[C@@H]1C[C@]1(NC(=O)[C@@H]1C[C@@H]2CN1C(=O)[C@H](C1CCCC1)NC(=O)O[C@@H]1CCC[C@H]1CCCC1CC1Cn1c(cc3ccccc3c1=O)O2)C(=O)NS(=O)(=O)C1CC1` (some centres unmarked) gave a Ki of 500 to 1000 pM. In the case of `CC[C@@H]1C[C@]1(NC(=O)[C@@H]1C[C@@H]2CN1C(=O)[C@H](C1CCCC1)NC(=O)O[C@@H]1CCC[C@H]1CC/C=C/Cn1c(nc3cc(C)ccc3c1=O)O2)C(=O)NS(=O)(=O)C1CC1` [(1R,14E,18S,22R,26S,29S)-26-cyclopentyl-N-((1R,2R)-1-{[(cyclopropylsulfonyl)amino]carbonyl}-2-ethylcyclopropyl)-7-methyl-11,24,27-trioxo-2,23-dioxa-4,12,25,28-tetraazapentacyclo[26.2.1.0^3,12.0^5,10.0^18,22]hentriaconta-3,5,7,9,14-pentaene-29-carboxamide], the Ki is reported as 100 to 500 pM. `C=C[C@@H]1C[C@]1(NC(=O)[C@@H]1C[C@@H]2CN1C(=O)[C@H](C1CCCC1)NC(=O)O[C@@H]1CCC[C@H]1CCCCCn1c(ccc(Br)c1=O)O2)C(=O)NS(=O)(=O)C1CC1` [(1R,14R,18R,22S,25S)-6-bromo-22-cyclopentyl-N-((1R,2S)-1-{[(cyclopropylsulfonyl)amino]carbonyl}-2-vinylcyclopropyl)-7,20,23-trioxo-2,19-dioxa-8,21,24-triazatetracyclo[22.2.1.0^3,8.0^14,18]heptacosa-3,5-diene-25-carboxamide] gave a Ki of 100 to 500 pM. Work on `C=C[C@@H]1C[C@]1(NC(=O)[C@@H]1C[C@@H]2CN1C(=O)[C@H](C1CCCC1)NC(=O)O[C@@H]1CCC[C@H]1CCCCCn1c(cccc1=O)O2)C(=O)NS(=O)(=O)C1CC1` [(1R,14R,18R,22S,25S)-22-cyclopentyl-N-((1R,2S)-1-{[(cyclopropylsulfonyl)amino]carbonyl}-2-vinylcyclopropyl)-7,20,23-trioxo-2,19-dioxa-8,21,24-triazatetracyclo[22.2.1.0^3,8.0^14,18]heptacosa-3,5-diene-25-carboxamide] yielded a Ki of 100 to 500 pM. Work on `C=C[C@@H]1C[C@]1(NC(=O)[C@@H]1C[C@@H]2CN1C(=O)[C@H](C1CCCC1)NC(=O)O[C@@H]1CCC[C@H]1CCCCCn1c(ccc(-c3ccccc3)c1=O)O2)C(=O)NS(=O)(=O)C1CC1` [(1R,14R,18R,22S,25S)-22-cyclopentyl-N-((1R,2S)-1-{[(cyclopropylsulfonyl)amino]carbonyl}-2-vinylcyclopropyl)-7,20,23-trioxo-6-phenyl-2,19-dioxa-8,21,24-triazatetracyclo[22.2.1.0^3,8.0^14,18]heptacosa-3,5-diene-25-carboxamide] yielded a Ki of 100 to 500 pM. In the case of `C=C[C@@H]1C[C@]1(NC(=O)[C@@H]1C[C@@H]2CN1C(=O)[C@H](C1CCCC1)NC(=O)O[C@@H]1CCC[C@H]1CCCCCn1c(nc3cc(Cl)ccc3c1=O)O2)C(=O)NS(=O)(=O)C1(C)CC1` [(1R,18R,22R,26S,29S)-7-chloro-26-cyclopentyl-N-[(1R,2S)-1-({[(1-methylcyclopropyl)sulfonyl]amino}carbonyl)-2-vinylcyclopropyl]-11,24,27-trioxo-2,23-dioxa-4,12,25,28-tetraazapentacyclo[26.2.1.0^3,12.0^5,10.0^18,22]hentriaconta-3,5,7,9-tetraene-29-carboxamide], the Ki is reported as less than 100 pM. With `C=C[C@@H]1C[C@]1(NC(=O)[C@@H]1C[C@@H]2CN1C(=O)[C@H](C1CCCC1)NC(=O)O[C@@H]1CCC[C@H]1CCCCCn1c(nc3cc(OC)ccc3c1=O)O2)C(=O)NS(=O)(=O)C1(C)CC1` [(1R,18R,22R,26S,29S)-26-cyclopentyl-7-methoxy-N-[(1R,2S)-1-({[(1-methylcyclopropyl)sulfonyl]amino}carbonyl)-2-vinylcyclopropyl]-11,24,27-trioxo-2,23-dioxa-4,12,25,28-tetraazapentacyclo[26.2.1.0^3,12.0^5,10.0^18,22]hentriaconta-3,5,7,9-tetraene-29-carboxamide] the Ki was less than 100 pM. In the case of `CC[C@@H]1C[C@]1(NC(=O)[C@@H]1C[C@@H]2CN1C(=O)[C@H](C1CCCC1)NC(=O)O[C@@H]1C[C@H]1CCCCCn1c(cc3ccccc3c1=O)O2)C(=O)NS(=O)(=O)C1CC1` [(1aR,5S,8S,10R,23aR)-5-cyclopentyl-N-((1R,2R)-1-{[(cyclopropylsulfonyl)amino]carbonyl}-2-ethylcyclopropyl)-3,6,17-trioxo-1,1a,3,4,5,6,9,10,19,20,21,22,23,23a-tetradecahydro-8H,17H-7,10-methanocyclopropa[18,19][1,10,3,6,12]dioxatriazacyclononadecino[12,11-b]isoquinoline-8-carboxamide], the Ki is reported as 100 to 500 pM. With `C=C[C@@H]1C[C@]1(NC(=O)[C@@H]1C[C@@H]2CN1C(=O)[C@H](C1CCCC1)NC(=O)O[C@@H]1C[C@H]1CCCCCn1c(cc3ccccc3c1=O)O2)C(=O)NS(=O)(=O)C1CC1` [(1aR,5S,8S,10R,23aR)-5-cyclopentyl-N-((1R,2S)-1-{[(cyclopropylsulfonyl)amino]carbonyl}-2-vinylcyclopropyl)-3,6,17-trioxo-1,1a,3,4,5,6,9,10,19,20,21,22,23,23a-tetradecahydro-8H,17H-7,10-methanocyclopropa[18,19][1,10,3,6,12]dioxatriazacyclononadecino[12,11-b]isoquinoline-8-carboxamide] the Ki was less than 100 pM. `CC[C@@H]1C[C@]1(NC(=O)[C@@H]1C[C@@H]2CN1C(=O)[C@H](C1CCCC1)NC(=O)O[C@H]1C[C@@H]1CCCCCn1c(cc3ccccc3c1=O)O2)C(=O)NS(=O)(=O)C1CC1` [(1aS,5S,8S,10R,23aS)-5-cyclopentyl-N-((1R,2R)-1-{[(cyclopropylsulfonyl)amino]carbonyl}-2-ethylcyclopropyl)-3,6,17-trioxo-1,1a,3,4,5,6,9,10,19,20,21,22,23,23a-tetradecahydro-8H,17H-7,10-methanocyclopropa[18,19][1,10,3,6,12]dioxatriazacyclononadecino[12,11-b]isoquinoline-8-carboxamide] gave a Ki of 100 to 500 pM. For `C=C[C@@H]1C[C@]1(NC(=O)[C@@H]1C[C@@H]2CN1C(=O)[C@H](C1CCCC1)NC(=O)O[C@H]1C[C@@H]1CCCCCn1c(cc3ccccc3c1=O)O2)C(=O)NS(=O)(=O)C1CC1` [(1aS,5S,8S,10R,23aS)-5-cyclopentyl-N-((1R,2S)-1-{[(cyclopropylsulfonyl)amino]carbonyl}-2-vinylcyclopropyl)-3,6,17-trioxo-1,1a,3,4,5,6,9,10,19,20,21,22,23,23a-tetradecahydro-8H,17H-7,10-methanocyclopropa[18,19][1,10,3,6,12]dioxatriazacyclononadecino[12,11-b]isoquinoline-8-carboxamide], the Ki was 100 to 500 pM. `CC[C@@H]1C[C@]1(NC(=O)[C@@H]1C[C@@H]2CN1C(=O)[C@H](C1CCCC1)NC(=O)O[C@@H]1CCC[C@H]1CC/C=C/Cn1c(nc3ccccc3c1=O)O2)C(=O)NS(=O)(=O)C1CC1` [(3aR,7S,10S,12R,22E,25aS)-7-cyclopentyl-N-((1R,2R)-1-{[(cyclopropylsulfonyl)amino]carbonyl}-2-ethylcyclopropyl)-5,8,19-trioxo-1,2,3,3a,5,6,7,8,11,12,21,24,25,25a-tetradecahydro-10H,19H-9,12-methanocyclopenta[18,19][1,10,3,6,12]dioxatriazacyclononadecino[11,12-b]quinazoline-10-carboxamide] showed a Ki of 100 to 500 pM.

Reference: patent US8461107B2 (Merck Sharp & Dohme Corp., priority 2008, dated 2013)
